The text below walks through data of US5281596A, “Antibacterial drugs for fish” (Bayer Aktiengesellschaft, priority 1986, dated 1994).

Holding throughout (format): cell-based
The test system of assay [1] is Pasteurella piscicida. Nature of the assay: In vitro antibacterial activity on pathogenic bacteria for fish (agar MIC, Test Example 1). To be noted: 20 h; for MIC: Photobacterium damselae; for MIC (minimum growth-inhibition concentration): Mueller-Hinton agar. How it is done: (§1) In vitro antibacterial activity on pathogenic-bacteria for fish
(§2) Each of the test strains was cultured over-night, and each culture broth (containing about 10^6 cells/ml) was innoculated in Mueller-Hinton agar (DIFCO) supplied with 1.0-2.0% sodium chloride and containing the test compound at each specified concentration.

In assay [2] the test system is Vibrio anguillarum. The assay is described as above. To be noted: 20 h; for MIC (minimum growth-inhibition concentration): Mueller-Hinton agar; for MIC: Vibrio anguillarum, read-out: MIC (minimum growth-inhibition concentration). How it is done:
as §1, §2

Assay [3] deals with Aeromonas hydrophila. The assay is described as above. As to conditions: 20 h; for MIC: Aeromonas hydrophila; for MIC (minimum growth-inhibition concentration): Mueller-Hinton agar. On the procedure:
as §1, §2

For assay [4], the system named is Pasteurella piscicida. The assay is described as follows: In vitro antibacterial activity of Compound D against various pathogenic bacteria for fish (agar MIC, Test Example 2). As to conditions: Photobacterium damselae, 20 h, read-out: MIC (minimum growth-inhibition concentration). On the procedure:
(§3) In vitro antibacterial activity of Compound D against Various Pathogenic Bacteria for Fish
(§4) Each of the test strains was cultured over-night, and the resultant culture broth (containing about 10^6 cells/ml) was innoculated in Mueller-Hinton agar (DIFCO) supplied with 1.0-2.0% sodium chloride and containing the test compound at the specified concentration.

In assay [5] the test system is Streptococcus sp. The description is as above. To be noted: 20 h, read-out: MIC (minimum growth-inhibition concentration). How it is done: as §3, §4
The subject of assay [6] is Edwardsiella tarda. Described as above. As to conditions: 20 h, read-out: MIC (minimum growth-inhibition concentration). On the procedure: as §3, §4
In assay [7] the test system is Vibrio anguillarum. The description is as above. As to conditions: 20 h. On the procedure: as §3, §4
Assay [8] has as its system Aeromonas salmonicida. The description is as above. To be noted: 20 h, read-out: MIC (minimum growth-inhibition concentration). On the procedure: as §3, §4
Assay [9] deals with Pseudomonas anguilliseptica. Described as above. As to conditions: 20 h, read-out: MIC (minimum growth-inhibition concentration). How it is done:
as §3, §4

For assay [10], the system named is Aeromonas hydrophila. Described as above. As to conditions: 20 h, read-out: MIC (minimum growth-inhibition concentration). How it is done:
as §3, §4

Setting [11] is: Pasteurella piscicida strain EH8304, Mueller-Hinton agar, 25-30 °C, read-out: MIC (minimum growth-inhibition concentration).
[12] abbreviates: Pasteurella piscicida strain EH8312, Mueller-Hinton agar, 25-30 °C, read-out: MIC (minimum growth-inhibition concentration).
[13] abbreviates: Pasteurella piscicida strain EH8313, Mueller-Hinton agar, 25-30 °C, read-out: MIC (minimum growth-inhibition concentration).
Where [14] appears, read: Vibrio anguillarum strain NA8340, Mueller-Hinton agar, 25-30 °C.
Where [15] appears, read: Vibrio anguillarum strain NA8341, Mueller-Hinton agar, 25-30 °C.
Setting [16] is: Vibrio anguillarum strain NA8346, Mueller-Hinton agar, 25-30 °C.
[17] abbreviates: Vibrio anguillarum strain NA8347, Mueller-Hinton agar, 25-30 °C.
Where [18] appears, read: Vibrio anguillarum strain NH8410, Mueller-Hinton agar, 25-30 °C.
[19] abbreviates: Aeromonas hydrophila strain KA8301, Mueller-Hinton agar, 25-30 °C, read-out: MIC (minimum growth-inhibition concentration).
[20] abbreviates: 25 strains, Mueller-Hinton agar, 25-30 °C.

In brackets after ≈: the same amount, converted by molar mass. Where two headings read alike, the source gives them in different places.

As for `CCn1cc(C(=O)O)c(=O)c2cc3c(cc21)OCO3` [Compound OA, 1-ethyl-1,4-dihydro-6,7-methylenedioxy-4-oxo-3-quinolinecarboxylic acid, reference compound], the MIC in assay [1] (read-out: MIC (minimum growth-inhibition concentration), Pasteurella piscicida strain EH8304, Mueller-Hinton agar, 25-30 °C) was 0.1 µg/mL (≈ 0.383 µM); in [1] (read-out: MIC (minimum growth-inhibition concentration), Pasteurella piscicida strain EH8309, Mueller-Hinton agar, 25-30 °C), 0.1 µg/mL (≈ 0.383 µM); in [1] (read-out: MIC (minimum growth-inhibition concentration), Pasteurella piscicida strain EH8312, Mueller-Hinton agar, 25-30 °C), 0.1 µg/mL (≈ 0.383 µM); in [1] (read-out: MIC (minimum growth-inhibition concentration), Pasteurella piscicida strain EH8313, Mueller-Hinton agar, 25-30 °C) it was 0.1 µg/mL (≈ 0.383 µM); in [1] (read-out: MIC (minimum growth-inhibition concentration), Pasteurella piscicida strain NG8319, Mueller-Hinton agar, 25-30 °C), 0.1 µg/mL (≈ 0.383 µM); in assay [2], 0.05 µg/mL (≈ 0.191 µM). The MIC in assay [3] (read-out: MIC (minimum growth-inhibition concentration), Aeromonas hydrophila strain C 44, Mueller-Hinton agar, 25-30 °C) is less than 0.0125 µg/mL; in assay [3] (read-out: MIC (minimum growth-inhibition concentration), Aeromonas hydrophila strain KA8301, Mueller-Hinton agar, 25-30 °C), less than 0.0125 µg/mL; in assay [3] (read-out: MIC (minimum growth-inhibition concentration), Aeromonas hydrophila strain KA8414, Mueller-Hinton agar, 25-30 °C), less than 0.0125 µg/mL; in [3] (read-out: MIC (minimum growth-inhibition concentration), Aeromonas hydrophila strain KA8416, Mueller-Hinton agar, 25-30 °C) it was less than 0.0125 µg/mL; in assay [3] (read-out: MIC (minimum growth-inhibition concentration), Aeromonas hydrophila strain M 183, Mueller-Hinton agar, 25-30 °C), less than 0.0125 µg/mL; in assay [4], 0.025 to 0.1 µg/mL (≈ 0.0957 to 0.383 µM). For the same molecule, the MIC in assay [5] (Streptococcus) is 200 to 400 µg/mL (≈ 766 to 1530 µM); in assay [6], 0.05 to 1.6 µg/mL (≈ 0.191 to 6.12 µM); in assay [7] (read-out: MIC (minimum growth-inhibition concentration), Vibrio anguillarum, Ayu origin, 25 strains, Mueller-Hinton agar, 25-30 °C), 0.05 to 25 µg/mL (≈ 0.191 to 95.7 µM); in assay [7] (read-out: MIC (minimum growth-inhibition concentration), Vibrio anguillarum, Yellowtail origin, 25 strains, Mueller-Hinton agar, 25-30 °C), 0.025 to 0.05 µg/mL (≈ 0.0957 to 0.191 µM); in assay [8] it was 0.05 to 3.2 µg/mL (≈ 0.191 to 12.2 µM); in [9], 0.0125 to 0.05 µg/mL (≈ 0.0479 to 0.191 µM). Further, the MIC in assay [10] was 0.0125 to 0.025 µg/mL (≈ 0.0479 to 0.0957 µM). In addition, the “MIC (minimum growth-inhibition concentration)” value in assay [2] (Vibrio anguillarum strain NA8340, 25-30 °C) came to 0.05 µg/mL (≈ 0.191 µM); in [2] (Vibrio anguillarum strain NA8341, 25-30 °C) it was 0.05 µg/mL (≈ 0.191 µM); in assay [2] (Vibrio anguillarum strain NA8346, 25-30 °C) it was 0.05 µg/mL (≈ 0.191 µM); in assay [2] (Vibrio anguillarum strain NA8347, 25-30 °C), 0.05 µg/mL (≈ 0.191 µM).

In the case of `CCOC(=O)c1cn(C2CC2)c2cc(N3CCN(CC)CC3)c(F)cc2c1=O` [Compound H, ethyl 1-cyclopropyl-6-fluoro-1,4-dihydro-4-oxo-7-(4-ethylpiperazino)-quinoline-3-carboxylate], the MIC in assay [1] (setting [11]) amounted to 25 µg/mL (≈ 64.5 µM); in [1] (Pasteurella piscicida strain EH8309, Mueller-Hinton agar, 25-30 °C, read-out: MIC (minimum growth-inhibition concentration)), 25 µg/mL (≈ 64.5 µM); in [1] (setting [12]), 12.5 µg/mL (≈ 32.3 µM); in assay [1] (setting [13]), 12.5 µg/mL (≈ 32.3 µM); in assay [1] (Pasteurella piscicida strain NG8319, Mueller-Hinton agar, 25-30 °C, read-out: MIC (minimum growth-inhibition concentration)), 25 µg/mL (≈ 64.5 µM); in assay [2] (setting [14]), 25 µg/mL (≈ 64.5 µM). For the same molecule, the MIC in assay [2] (setting [15]) amounted to 25 µg/mL (≈ 64.5 µM); in assay [2] (setting [16]), 12.5 µg/mL (≈ 32.3 µM); in assay [2] (setting [17]), 12.5 µg/mL (≈ 32.3 µM); in assay [2] (setting [18]) it was 12.5 µg/mL (≈ 32.3 µM); in assay [3] (Aeromonas hydrophila strain C 44, Mueller-Hinton agar, 25-30 °C, read-out: MIC (minimum growth-inhibition concentration)) it was 50 µg/mL (≈ 129 µM); in assay [3] (setting [19]), 12.5 µg/mL (≈ 32.3 µM). The MIC in assay [3] (Aeromonas hydrophila strain KA8414, Mueller-Hinton agar, 25-30 °C, read-out: MIC (minimum growth-inhibition concentration)) is 25 µg/mL (≈ 64.5 µM); in assay [3] (Aeromonas hydrophila strain KA8416, Mueller-Hinton agar, 25-30 °C, read-out: MIC (minimum growth-inhibition concentration)), 12.5 µg/mL (≈ 32.3 µM); in assay [3] (Aeromonas hydrophila strain M 183, Mueller-Hinton agar, 25-30 °C, read-out: MIC (minimum growth-inhibition concentration)), 12.5 µg/mL (≈ 32.3 µM).

Turning to `CCN1CCN(c2cc3c(cc2F)c(=O)c(C(=O)O)cn3C2CC2)CC1` [Compound D, 1-cyclopropyl-6-fluoro-1,4-dihydro-4-oxo-7-(4-ethylpiperazino)-quinoline-3-carboxylic acid], the “MIC (minimum growth-inhibition concentration)” value was 0.025 µg/mL (≈ 0.0696 µM) in assay [1] (Pasteurella piscicida strain EH8309, 25-30 °C); 0.025 µg/mL (≈ 0.0696 µM) in assay [1] (Pasteurella piscicida strain NG8319, 25-30 °C); less than 0.0125 µg/mL in assay [3] (Aeromonas hydrophila strain C 44, 25-30 °C); less than 0.0125 µg/mL in [3] (Aeromonas hydrophila strain KA8414, 25-30 °C); less than 0.0125 µg/mL in assay [3] (Aeromonas hydrophila strain KA8416, 25-30 °C); less than 0.0125 µg/mL in assay [3] (Aeromonas hydrophila strain M 183, 25-30 °C). Moreover, the MIC in assay [1] (setting [11]) stood at 0.05 µg/mL (≈ 0.139 µM); in [1] (setting [12]), 0.05 µg/mL (≈ 0.139 µM); in assay [1] (setting [13]), 0.05 µg/mL (≈ 0.139 µM); in [2] (setting [14]), 0.025 µg/mL (≈ 0.0696 µM); in [2] (setting [15]), 0.025 µg/mL (≈ 0.0696 µM); in [2] (setting [16]), 0.025 µg/mL (≈ 0.0696 µM). Further, the MIC in assay [2] (setting [17]) is 0.025 µg/mL (≈ 0.0696 µM); in assay [2] (setting [18]), 0.025 µg/mL (≈ 0.0696 µM); in assay [3] (setting [19]), 0.025 µg/mL (≈ 0.0696 µM); in assay [4] (Pasteurella piscicida, 25 strains, Mueller-Hinton agar, 25-30 °C), 0.0125 to 0.05 µg/mL (≈ 0.0348 to 0.139 µM); in assay [5] (Streptococcus sp., 25 strains, Mueller-Hinton agar, 25-30 °C), 0.8 µg/mL (≈ 2.23 µM); in assay [6] (setting [20]) it was 0.025 to 0.2 µg/mL (≈ 0.0696 to 0.556 µM). The MIC in assay [7] (Ayu origin, 25 strains, Mueller-Hinton agar, 25-30 °C, read-out: MIC (minimum growth-inhibition concentration)) lay within 0.025 to 0.4 µg/mL (≈ 0.0696 to 1.11 µM); in [7] (Yellowtail origin, 25 strains, Mueller-Hinton agar, 25-30 °C, read-out: MIC (minimum growth-inhibition concentration)) it was 0.05 to 0.1 µg/mL (≈ 0.139 to 0.278 µM); in assay [8] (setting [20]) it was 0.0125 to 0.1 µg/mL (≈ 0.0348 to 0.278 µM); in assay [9] (18 strains, Mueller-Hinton agar, 25-30 °C), 0.0125 to 0.025 µg/mL (≈ 0.0348 to 0.0696 µM).
